Data reported in US6737383B1, “Herbicidal oxadiazolidines” (priority 1999, dated 2004).

Columns and labels:
[1] = tested on: rice; assay: Test B flood test rice; format: in vivo, Oryza sativa
How it was run: (§1)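 Flood test on plants grown to the 2-leaf stage; treated plants kept in greenhouse twelve to sixteen days, then visually rated against controls on a 0 (no effect) to 10 (complete control) scale.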

[2] = tested on: smallflower flatsedge; assay: Test B flood test smallflower flatsedge; format: in vivo, Cyperus difformis
How it was run: as §1

[3] = tested on: duck salad; assay: Test B flood test duck salad; format: in vivo, Heteranthera limosa
How it was run: as §1

[4] = tested on: bamyardgrass; assay: Test B flood test barnyardgrass; format: in vivo, Echinochloa crus-galli
How it was run: as §1

[5] = Pre-emergence, Rate 62 g/ha, scale 0 to 10, 0 is no effect, 10 is complete control
[6] = Rate 125 g/ha, Pre-emergence section (flood test species), scale 0 to 10, 0 no effect, 10 complete control
[7] = Rate 500 g/ha, Pre-emergence section of Table B, 0 to 10 scale (0 no effect, 10 complete control)

Compound: CC(C)N(C(=O)n1oc(=O)n(C2CC=CCC2)c1=O)c1ccc(F)cc1 (stereo not drawn) [Compound 793]
- Rice plant response rating [1, 5]: 0
- Rice plant response rating [1, 6]: 0
- Rice plant response rating [1, 7]: 0
- S. Flatsedge plant response rating [2, 5]: 6
- S. Flatsedge plant response rating [2, 6]: 7
- S. Flatsedge plant response rating [2, 7]: 8
- Ducksalad plant response rating [3, 5]: 6
- Ducksalad plant response rating [3, 6]: 7
- Ducksalad plant response rating [3, 7]: 8
- Barnyardgrass plant response rating [4, 5]: 0
- Barnyardgrass plant response rating [4, 6]: 0
- Barnyardgrass plant response rating [4, 7]: 0
